Assay results taken from US20240199649A1 (Biosplice Therapeutics, Inc., priority 2022, published 2024).

Molecular target: recombinant DYRK1A kinase (Homo sapiens (Human), UniProt Q13627)
Assay: DYRK1A kinase assay (Ser/Thr 18 peptide Z-lyte FRET assay)
Type: biochemical
Conditions: DYRK1A 0.25 μg/mL, ATP 15 μM, Ser/Thr peptide 18 4 μM; one hour at room temperature; 11-point dose-response, duplicate
How it was run: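 Z-lyte FRET assay on Ser/Thr 18 peptide, kinase activity read as coumarin/fluorescein emission ratio; compounds incubated 1 h at room temperature, then development reagent 1 h, in duplicate. Phosphorylated and unphosphorylated peptide served as controls; IC50 by non-linear regression of dose-response curves.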

SMILES | IC50
Cc1nc2ccc(-c3ccn4nc(N[C@@H]5CCN(C)CC5(F)F)nc(NC(C)C)c34)nc2n1CC(F)F [Compound 485, (R)—N^2-(3,3-Difluoro-1-methylpiperidin-4-yl)-5-(3-(2,2-difluoroethyl)-2-methyl-3H-imidazo[4,5-b]pyridin-5-yl)-N^4-isopropylpyrrolo[2,1-f][1,2,4]triazine-2,4-diamine] | 7.3 nM
Cc1nc2ccc(-c3ccn4nc(N[C@@H]5CCNCC5(F)F)nc(NC5COC5)c34)nc2n1CC(F)F [Compound 486, (R)-5-(3-(2,2-Difluoroethyl)-2-methyl-3H-imidazo[4,5-b]pyridin-5-yl)-N^2-(3,3-difluoropiperidin-4-yl)-N^4-(oxetan-3-yl)pyrrolo[2,1-f][1,2,4]triazine-2,4-diamine] | 7830 nM
Cc1nc2ccc(-c3ccn4nc(N[C@@H]5CCN(C)CC5(F)F)nc(NC5COC5)c34)nc2n1CC(F)F [Compound 487, (R)—N2-(3,3-Difluoro-1-methylpiperidin-4-yl)-5-(3-(2,2-difluoroethyl)-2-methyl-3H-imidazo[4,5-b]pyridin-5-yl)-N4-(oxetan-3-yl)pyrrolo[2,1-f][1,2,4]triazine-2,4-diamine] | 3.8 nM
Cc1nc2ccc(-c3ccn4nc(N[C@@H]5CCN(C6COC6)CC5(F)F)nc(N)c34)nc2n1CC(F)F [Compound 730, (R)—N^2-(3,3-Difluoro-1-(oxetan-3-yl)piperidin-4-yl)-5-(3-(2,2-difluoroethyl)-2-methyl-3H-imidazo[4,5-b]pyridin-5-yl)pyrrolo[2,1-f][1,2,4]triazine-2,4-diamine] | 2.1 nM
CC(=O)N1C[C@H](F)[C@H](Nc2nc(N)c3c(-c4ccc5nc(C)n(CC(F)(F)F)c5n4)ccn3n2)C1 [Compound 762, 1-((3R,4S)-3-((4-Amino-5-(2-methyl-3-(2,2,2-trifluoroethyl)-3H-imidazo[4,5-b]pyridin-5-yl)pyrrolo[2,1-f][1,2,4]triazin-2-yl)amino)-4-fluoropyrrolidin-1-yl)ethan-1-one] | 1.5 nM
Cc1nc2ccc(-c3ccn4nc(N[C@@H]5CN(C6COC6)C[C@@H]5F)nc(N)c34)nc2n1CC(F)(F)F [Compound 763, N^2-((3R,4S)-4-Fluoro-1-(oxetan-3-yl)pyrrolidin-3-yl)-5-(2-methyl-3-(2,2,2-trifluoroethyl)-3H-imidazo[4,5-b]pyridin-5-yl)pyrrolo[2,1-f][1,2,4]triazine-2,4-diamine] | 1.4 nM
CC(=O)N1CC[C@H](Nc2nc(N)c3c(-c4ccc5nc(C)n(CC(F)(F)F)c5n4)ccn3n2)[C@H](F)C1 [Compound 777, 1-((3R,4S)-4-((4-Amino-5-(2-methyl-3-(2,2,2-trifluoroethyl)-3H-imidazo[4,5-b]pyridin-5-yl)pyrrolo[2,1-f][1,2,4]triazin-2-yl)amino)-3-fluoropiperidin-1-yl)ethan-1-one] | 1.2 nM
Cc1nc2ccc(-c3ccn4nc(N[C@H]5CCN(C6COC6)C[C@H]5F)nc(N)c34)nc2n1CC(F)(F)F [Compound 780, N^2-((3R,4S)-3-Fluoro-1-(oxetan-3-yl)piperidin-4-yl)-5-(2-methyl-3-(2,2,2-trifluoroethyl)-3H-imidazo[4,5-b]pyridin-5-yl)pyrrolo[2,1-f][1,2,4]triazine-2,4-diamine] | 1.2 nM
Cc1nc2ccc(-c3ccn4nc(N[C@@H]5CCN(C6COC6)CC5(F)F)nc(N)c34)nc2n1CC(F)(F)F [Compound 792, (R)—N^2-(3,3-Difluoro-1-(oxetan-3-yl)piperidin-4-yl)-5-(2-methyl-3-(2,2,2-trifluoroethyl)-3H-imidazo[4,5-b]pyridin-5-yl)pyrrolo[2,1-f][1,2,4]triazine-2,4-diamine] | 4.8 nM
C[C@]1(O)CC[C@H](Nc2nc(N)c3c(-c4ccc5nnn(CC(F)F)c5n4)ccn3n2)CC1 [Compound 816, (1r,4r)-4-((4-Amino-5-(3-(2,2-difluoroethyl)-3H-[1,2,3]triazolo[4,5-b]pyridin-5-yl)pyrrolo[2,1-f][1,2,4]triazin-2-yl)amino)-1-methylcyclohexan-1-ol] | 1.3 nM
Nc1nc(N[C@H]2CCN(C3COC3)C[C@H]2F)nn2ccc(-c3ccc4nnn(CC(F)F)c4n3)c12 [Compound 842, 5-(3-(2,2-Difluoroethyl)-3H-[1,2,3]triazolo[4,5-b]pyridin-5-yl)-N^2-((3R,4S)-3-fluoro-1-(oxetan-3-yl)piperidin-4-yl)pyrrolo[2,1-f][1,2,4]triazine-2,4-diamine] | 1.5 nM
CC(=O)N1CC[C@@H](Nc2nc(N)c3c(-c4ccc5nnn(CC(F)F)c5n4)ccn3n2)C(F)(F)C1 [Compound 853, (R)-1-(4-((4-Amino-5-(3-(2,2-difluoroethyl)-3H-[1,2,3]triazolo[4,5-b]pyridin-5-yl)pyrrolo[2,1-f][1,2,4]triazin-2-yl)amino)-3,3-difluoropiperidin-1-yl)ethan-1-one] | 1.5 nM
Nc1nc(N[C@@H]2CCN(C3COC3)CC2(F)F)nn2ccc(-c3ccc4nnn(CC(F)F)c4n3)c12 [Compound 854, (R)—N^2-(3,3-Difluoro-1-(oxetan-3-yl)piperidin-4-yl)-5-(3-(2,2-difluoroethyl)-3H-[1,2,3]triazolo[4,5-b]pyridin-5-yl)pyrrolo[2,1-f][1,2,4]triazine-2,4-diamine] | 2.1 nM
CN1CC[C@@H](Nc2nc(N)c3c(-c4ccc5ncn(CCF)c5n4)ccn3n2)C(F)(F)C1 [Compound 985, (R)—N^2-(3,3-Difluoro-1-methylpiperidin-4-yl)-5-(3-(2-fluoroethyl)-3H-imidazo[4,5-b]pyridin-5-yl)pyrrolo[2,1-f][1,2,4]triazine-2,4-diamine] | 1.5 nM

Now those with a lower IC50, led by results:

IC50 | SMILES
0.9 nM | Cc1nc2ccc(-c3ccn4nc(N[C@H]5CC[C@](C)(O)CC5)nc(N)c34)nc2n1CC(F)F [Compound 692, (1r,4r)-4-((4-Amino-5-(3-(2,2-difluoroethyl)-2-methyl-3H-imidazo[4,5-b]pyridin-5-yl)pyrrolo[2,1-f][1,2,4]triazin-2-yl)amino)-1-methylcyclohexan-1-ol]
1 nM | CC(=O)N1C[C@H](F)[C@H](Nc2nc(N)c3c(-c4ccc5nc(C)n(CC(F)F)c5n4)ccn3n2)C1 [Compound 700, 1-((3R,4S)-3-((4-Amino-5-(3-(2,2-difluoroethyl)-2-methyl-3H-imidazo[4,5-b]pyridin-5-yl)pyrrolo[2,1-f][1,2,4]triazin-2-yl)amino)-4-fluoropyrrolidin-1-yl)ethan-1-one]
1 nM | Cc1nc2ccc(-c3ccn4nc(N[C@@H]5CN(C6COC6)C[C@@H]5F)nc(N)c34)nc2n1CC(F)F [Compound 701, 5-(3-(2,2-Difluoroethyl)-2-methyl-3H-imidazo[4,5-b]pyridin-5-yl)-N^2-((3R,4S)-4-fluoro-1-(oxetan-3-yl)pyrrolidin-3-yl)pyrrolo[2,1-f][1,2,4]triazine-2,4-diamine]
0.4 nM | CC(=O)N1CC[C@H](Nc2nc(N)c3c(-c4ccc5nc(C)n(CC(F)F)c5n4)ccn3n2)[C@H](F)C1 [Compound 715, 1-((3R,4S)-4-((4-Amino-5-(3-(2,2-difluoroethyl)-2-methyl-3H-imidazo[4,5-b]pyridin-5-yl)pyrrolo[2,1-f][1,2,4]triazin-2-yl)amino)-3-fluoropiperidin-1-yl)ethan-1-one]
0.4 nM | CC(=O)N1CC[C@@H](Nc2nc(N)c3c(-c4ccc5nc(C)n(CC(F)F)c5n4)ccn3n2)C(F)(F)C1 [Compound 729, (R)-1-(4-((4-Amino-5-(3-(2,2-difluoroethyl)-2-methyl-3H-imidazo[4,5-b]pyridin-5-yl)pyrrolo[2,1-f][1,2,4]triazin-2-yl)amino)-3,3-difluoropiperidin-1-yl)ethan-1-one]
0.5 nM | Cc1nc2ccc(-c3ccn4nc(N[C@H]5CC[C@](C)(O)CC5)nc(N)c34)nc2n1CC(F)(F)F [Compound 754, (1r,4r)-4-((4-Amino-5-(2-methyl-3-(2,2,2-trifluoroethyl)-3H-imidazo[4,5-b]pyridin-5-yl)pyrrolo[2,1-f][1,2,4]triazin-2-yl)amino)-1-methylcyclohexan-1-ol]
0.6 nM | CN1CC[C@@H](Nc2nc(N)c3c(-c4ccc5nnn(CC(F)F)c5n4)ccn3n2)C(F)(F)C1 [Compound 850, (R)—N^2-(3,3-Difluoro-1-methylpiperidin-4-yl)-5-(3-(2,2-difluoroethyl)-3H-[1,2,3]triazolo[4,5-b]pyridin-5-yl)pyrrolo[2,1-f][1,2,4]triazine-2,4-diamine]
0.7 nM | C[C@]1(O)CC[C@H](Nc2nc(N)c3c(-c4ccc5ncn(CC(F)F)c5n4)ccn3n2)CC1 [Compound 986, (1r,4r)-4-((4-Amino-5-(3-(2,2-difluoroethyl)-3H-imidazo[4,5-b]pyridin-5-yl)pyrrolo[2,1-f][1,2,4]triazin-2-yl)amino)-1-methylcyclohexan-1-ol]
0.8 nM | CC(=O)N1C[C@H](F)[C@H](Nc2nc(N)c3c(-c4ccc5ncn(CC(F)F)c5n4)ccn3n2)C1 [Compound 987, 1-((3R,4S)-3-((4-Amino-5-(3-(2,2-difluoroethyl)-3H-imidazo[4,5-b]pyridin-5-yl)pyrrolo[2,1-f][1,2,4]triazin-2-yl)amino)-4-fluoropyrrolidin-1-yl)ethan-1-one]
0.6 nM | Nc1nc(N[C@@H]2CN(C3COC3)C[C@@H]2F)nn2ccc(-c3ccc4ncn(CC(F)F)c4n3)c12 [Compound 988, 5-(3-(2,2-Difluoroethyl)-3H-imidazo[4,5-b]pyridin-5-yl)-N^2-((3R,4S)-4-fluoro-1-(oxetan-3-yl)pyrrolidin-3-yl)pyrrolo[2,1-f][1,2,4]triazine-2,4-diamine]
0.6 nM | Nc1nc(N[C@H]2CCN(C3COC3)C[C@H]2F)nn2ccc(-c3ccc4ncn(CC(F)F)c4n3)c12 [Compound 990, 5-(3-(2,2-Difluoroethyl)-3H-imidazo[4,5-b]pyridin-5-yl)-N^2-((3R,4S)-3-fluoro-1-(oxetan-3-yl)piperidin-4-yl)pyrrolo[2,1-f][1,2,4]triazine-2,4-diamine]
